Reference: US20080113983A1, “Nicotinic Acetylcholine Receptor Ligands” (AstraZeneca AB, priority 2004, published 2008)

Target: T1, α4 nAChR receptor (Rattus norvegicus, UniProt P09483+P12390)
T1 construct: from tissue; host or cells: rat cortical brain membranes
Test: Radioligand ([125I]-IPH) binding to rat cortical membranes
Details: saturation curves fitted to a one site model
Protocol: Assay for affinity at an α4 nAChR receptor by measuring the binding of [^3H]-(-)-nicotine binding to rat cortical membranes.
A procedure modified from Martino-Barrows and Kellar (Mol Pharm (1987) 31:169-174) may be used. Rat cortical brain membranes are prepared as described in the [^125I]α-BTX binding assay, except that a 500-12000×g membrane fraction is prepared. Membranes (30-150 μg) are incubated with 30-100 pM of the epibatidine analog [^125I]-IPH ((+/−)-exo-2-(2-iodo-5-pyridyl)-7-azabicyclo-[2,2,1]heptane) together with test compound in HB for 1 hour at room temperature with gentle shaking. Membranes may be recovered as described for the [^125I]α-BTX binding assay. Non-specific binding may be determined by 100 μM carbachol. Typically specific binding is about 84%.
Analysis of Binding Data Obtained in α7 nAChR or α4 nAChR receptor assays
IC50 values and pseudo Hill coefficients (nH) may be calculated using the non-linear curve fitting program ALLFIT (DeLean A, Munson P J and Rodbard D (1977) Am. J. Physiol., 235:E97-E102). […] Ki values may be estimated using the general Cheng-Prusoff equation:
Ki=[IC50 ]/((2+([ligand]/KD)^n)^1/n−1)
where a value of n=1 is used whenever nH<1.5 and a value of n=2 is used when nH>1.5. To account for variability, assays may be performed in triplicate and variability will typically be ±5%. Ki values may be determined using six to 11 drug concentrations.

T1 sequence (P12390 25-500): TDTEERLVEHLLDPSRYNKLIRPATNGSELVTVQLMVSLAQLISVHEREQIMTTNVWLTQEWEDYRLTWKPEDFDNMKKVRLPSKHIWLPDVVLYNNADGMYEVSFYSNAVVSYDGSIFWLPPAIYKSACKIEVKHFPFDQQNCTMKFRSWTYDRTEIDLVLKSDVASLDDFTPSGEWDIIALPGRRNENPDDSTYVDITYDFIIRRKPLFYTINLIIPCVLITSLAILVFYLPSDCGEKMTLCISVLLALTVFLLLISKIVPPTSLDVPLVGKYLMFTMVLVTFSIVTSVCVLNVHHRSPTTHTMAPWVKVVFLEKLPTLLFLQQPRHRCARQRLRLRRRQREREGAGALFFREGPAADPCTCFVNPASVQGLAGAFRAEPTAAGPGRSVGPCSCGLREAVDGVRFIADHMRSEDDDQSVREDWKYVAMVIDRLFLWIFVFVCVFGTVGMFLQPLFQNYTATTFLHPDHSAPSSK
T1 sequence (P09483 31-630): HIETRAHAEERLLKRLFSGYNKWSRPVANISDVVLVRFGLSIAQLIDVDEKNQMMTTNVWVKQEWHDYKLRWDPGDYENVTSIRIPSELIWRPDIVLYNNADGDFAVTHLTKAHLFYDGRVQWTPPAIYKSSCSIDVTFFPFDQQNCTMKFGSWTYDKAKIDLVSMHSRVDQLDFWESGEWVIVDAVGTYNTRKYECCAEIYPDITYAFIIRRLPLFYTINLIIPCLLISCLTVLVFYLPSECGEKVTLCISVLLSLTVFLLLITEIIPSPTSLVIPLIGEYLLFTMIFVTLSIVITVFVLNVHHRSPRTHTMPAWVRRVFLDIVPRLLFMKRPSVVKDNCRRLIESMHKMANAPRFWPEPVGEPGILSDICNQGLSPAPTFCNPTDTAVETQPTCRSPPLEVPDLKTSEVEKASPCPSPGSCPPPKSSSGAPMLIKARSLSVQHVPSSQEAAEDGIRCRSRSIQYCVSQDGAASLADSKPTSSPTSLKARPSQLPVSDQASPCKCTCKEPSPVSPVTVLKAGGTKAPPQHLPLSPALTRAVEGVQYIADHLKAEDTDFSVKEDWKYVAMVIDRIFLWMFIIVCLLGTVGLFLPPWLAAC

Ic1ccc(C2CC3CCC2N3)cn1 (racemic) [[^125I]-IPH, (+/−)-exo-2-(2-iodo-5-pyridyl)-7-azabicyclo-[2,2,1]heptane]
Kd: 0.064 nM
